Source: US20240132484A1, “BROAD SPECTRUM ANTIVIRAL COMPOUNDS TARGETING THE SKI COMPLEX” (priority 2020, published 2024)
Values joined by “and” are separate entries in the source; they are usually repeats but may differ in a detail not shown here. Equal values may be shown once. Read-outs that look alike come from different tables or passages of the source.

Tested on: SARS2
Assay type: cell-based, SARS-CoV-2
Settings: for Percentage Infection Relative to Appropriate DMSO Control / Infection Data: Percentage Infection Relative to Appropriate DMSO Control / Percentage Infection Relative to Appropriate DMSO Control, Mean / Infection Data, Percentage Infection Relative to Appropriate DMSO Control: avg background subtraction; for Infection Data: Percentage Infection Relative to Appropriate DMSO Control: replicate wells; for Infection Data: Average, Mean: average of Exp 1-3 (SMW475, SMW477, SMW478), n 9; for Infection Data, Average, Mean percentage infection relative to DMSO control: Average of Exp 1 (SMW491) and Exp 2 (SMW492); for Percentage Infection Relative to Appropriate DMSO Control, Mean: Average of Exp 1 and Exp 2, n=4; for Infection Data, Percentage Infection Relative to Appropriate DMSO Control: single well

COc1ccc(CNCCc2ccccc2F)c(OCC(O)CN2CCN(C)CC2)c1 (racemic) [UMB18G]
Percentage Infection Relative to Appropriate DMSO Control (1 uM, Exp 1 (SMW454), single wells): 79.68% and 100.00% and 102.30%
Infection Data: Percentage Infection Relative to Appropriate DMSO Control (1 uM, Exp 1 (SMW475)): 59.52% and 81.22% and 48.39%
Infection Data: Percentage Infection Relative to Appropriate DMSO Control (1 uM, Exp 2 (SMW477)): 30.54% and 44.61% and 49.97%
Infection Data: Percentage Infection Relative to Appropriate DMSO Control (1 uM, Exp 3 (SMW478)): 92.92% and 83.96% and 93.97%
Infection Data: Average, Mean (1 uM): 65.01%
Percentage Infection Relative to Appropriate DMSO Control (5 uM, Exp 1 (SMW454), single wells): 82.33% and 99.01% and 94.32%
Infection Data: Percentage Infection Relative to Appropriate DMSO Control (5 uM, Exp 1 (SMW475)): 11.41% and 21.71% and 5.92%
Infection Data: Percentage Infection Relative to Appropriate DMSO Control (5 uM, Exp 2 (SMW477)): 9.13% and 26.77% and 20.94%
Infection Data: Percentage Infection Relative to Appropriate DMSO Control (5 uM, Exp 3 (SMW478)): 28.65% and 43.74% and 34.06%
Infection Data: Average, Mean (5 uM): 22.48%
Percentage Infection Relative to Appropriate DMSO Control (10 uM, Exp 1 (SMW454), single wells): 84.64% and 105.70% and 105.02%
Infection Data: Percentage Infection Relative to Appropriate DMSO Control (10 uM, Exp 1 (SMW475)): 7.16% and 14.38% and 4.59%
Infection Data: Percentage Infection Relative to Appropriate DMSO Control (10 uM, Exp 2 (SMW477)): 10.76% and 16.40% and 10.07%
Infection Data: Percentage Infection Relative to Appropriate DMSO Control (10 uM, Exp 3 (SMW478)): 46.05% and 27.62% and 30.93%
Infection Data: Average, Mean (10 uM): 18.66%
Percentage Infection Relative to Appropriate DMSO Control (25 uM, Exp 1 (SMW454), single wells): 54.89% and 58.50% and 60.94%
Infection Data: Percentage Infection Relative to Appropriate DMSO Control (25 uM, Exp 1 (SMW475)): 0.07% and −0.35% and −1.40%
Infection Data: Percentage Infection Relative to Appropriate DMSO Control (25 uM, Exp 2 (SMW477)): 1.11% and 0.67% and 1.76%
Infection Data: Percentage Infection Relative to Appropriate DMSO Control (25 uM, Exp 3 (SMW478)): 3.99% and 4.14% and 2.78%
Infection Data: Average, Mean (25 uM): 1.42%
Percentage Infection Relative to Appropriate DMSO Control (50 uM, Exp 1 (SMW454), single wells): 28.95% and 40.45% and 40.98%
Infection Data: Percentage Infection Relative to Appropriate DMSO Control (50 uM, Exp 1 (SMW475)): −0.48% and −1.48% and 0.34%
Infection Data: Percentage Infection Relative to Appropriate DMSO Control (50 uM, Exp 2 (SMW477)): 1.36% and 0.07% and 1.60%
Infection Data: Percentage Infection Relative to Appropriate DMSO Control (50 uM, Exp 3 (SMW478)): 0.69% and 2.33% and 1.45%
Infection Data: Average, Mean (50 uM): 0.65%
Infection Data, Average, Mean percentage infection relative to DMSO control (n=4, 1 uM): 65.84% and 39.37% and 49.93% and 57.24%
Infection Data, Average, Mean percentage infection relative to DMSO control (n=4, 5 uM): 54.32% and 40.70% and 42.82% and 28.04%
Infection Data, Average, Mean percentage infection relative to DMSO control (n=4, 10 uM): 8.53% and 5.08% and 5.96% and 7.33%
Infection Data, Average, Mean percentage infection relative to DMSO control (n=4, 25 uM): 11.20% and 7.36% and 4.36% and 11.41%
Infection Data, Average, Mean percentage infection relative to DMSO control (n=4, 50 uM): 8.04% and 0.83% and 7.39% and 10.06%
Infection Data, Average, Mean (Average of Exp 1-3, n 9, 1 uM): 79.70%
Infection Data, Average, Mean (Average of Exp 1-3, n 9, 5 uM): 44.64%
Infection Data, Average, Mean (Average of Exp 1-3, n 9, 10 uM): 52.11%
Infection Data, Average, Mean (Average of Exp 1-3, n 9, 25 uM): 19.49%
Infection Data, Average, Mean (Average of Exp 1-3, n 9, 50 uM): 11.46%
Percentage Infection Relative to Appropriate DMSO Control, Mean (1 uM): 59.34% and 41.11%
Percentage Infection Relative to Appropriate DMSO Control, Mean (5 uM): 26.29% and 13.69%
Percentage Infection Relative to Appropriate DMSO Control, Mean (10 uM): 6.07% and 4.47%
Percentage Infection Relative to Appropriate DMSO Control, Mean (25 uM): 3.40% and 3.46%
Percentage Infection Relative to Appropriate DMSO Control, Mean (50 uM): 2.64% and 2.63%
Infection Data, Percentage Infection Relative to Appropriate DMSO Control (Exp 1 (SMW491), 10 uM): 5.19% and 1.05% and 0.23% and 2.20% and 5.21% and 4.17% and 3.28% and 4.40%
Percentage Infection Relative to Appropriate DMSO Control (Exp 1 (SMW506), 10 uM, single wells): 6.99% and 10.55% and 9.19% and 3.42%
Percentage Infection Relative to Appropriate DMSO Control (Exp 1 (SMW506), 25 uM, single wells): 4.49% and 2.30% and 4.05% and 3.63%
Percentage Infection Relative to Appropriate DMSO Control (Exp 1 (SMW506), 50 uM, single wells): 4.22% and 4.54% and 5.07% and 2.41%
Percentage Infection Relative to Appropriate DMSO Control (Exp 2 (SMW466), 10 uM): 10.03% and 6.17% and 9.36%
Percentage Infection Relative to Appropriate DMSO Control (Exp 2 (SMW466), 25 uM): −0.69% and −1.02% and −1.54%
Percentage Infection Relative to Appropriate DMSO Control (Exp 2 (SMW466), 50 uM): −0.97% and −1.80% and 1.96%
Infection Data, Percentage Infection Relative to Appropriate DMSO Control (Exp 2 (SMW492), 1 uM): 87.68% and 68.32% and 72.99% and 69.05% and 75.23% and 75.22% and 50.23% and 54.62%
Infection Data, Percentage Infection Relative to Appropriate DMSO Control (Exp 2 (SMW492), 10 uM): 15.18% and 12.71% and 12.92% and 8.48% and 10.42% and 9.51% and 5.72% and 6.91%
Percentage Infection Relative to Appropriate DMSO Control (Exp 2 (SMW492), 1 uM, single wells): 34.50% and 31.39% and 22.69% and 24.33%
Percentage Infection Relative to Appropriate DMSO Control (Exp 2 (SMW492), 5 uM, single wells): 5.38% and 4.98% and 4.24% and 4.87%
Percentage Infection Relative to Appropriate DMSO Control (Exp 2 (SMW492), 10 uM, single wells): 3.43% and 3.30% and 3.52% and 1.74%
Percentage Infection Relative to Appropriate DMSO Control (Exp 2 (SMW492), 25 uM, single wells): 4.70% and 2.08% and 5.51% and 0.65%
Percentage Infection Relative to Appropriate DMSO Control (Exp 2 (SMW492), 50 uM, single wells): 1.27% and 0.52% and 1.57% and 1.49%
